The results in this text go back to patent US20250049930A1, “PROTAC MOLECULES TARGETING FOXP3 AND USES THEREOF” (CEDARS-SINAI MEDICAL CENTER, priority 2022, published 2025).

The subject of one experiment is RENCA cells. The experiment is described as follows: RENCA cell growth in vitro. The format is cell-based, mouse. The settings on record: 0.002, 0.02, 0.2, or 2 μM, 48 hours. As to the method: That is, the tumor in the P60 treated tumor grew at the same rate as the saline treated mice. Further, RENCA cells (20×10^4/well) were seeded in 12 well plates and treated with PF or PC at 0.002, 0.02, 0.2, or 2 μM. […] The first approach involved depleting CD8+ lymphocytes, which are known to mediate antitumor immunity.

Another experiment deals with T1, FoxP3 (Mus musculus, UniProt Q99JB6).
T1 construct: from tissue; host or cells: peripheral blood and spleen of mice
T1 sequence (Q99JB6 1-429): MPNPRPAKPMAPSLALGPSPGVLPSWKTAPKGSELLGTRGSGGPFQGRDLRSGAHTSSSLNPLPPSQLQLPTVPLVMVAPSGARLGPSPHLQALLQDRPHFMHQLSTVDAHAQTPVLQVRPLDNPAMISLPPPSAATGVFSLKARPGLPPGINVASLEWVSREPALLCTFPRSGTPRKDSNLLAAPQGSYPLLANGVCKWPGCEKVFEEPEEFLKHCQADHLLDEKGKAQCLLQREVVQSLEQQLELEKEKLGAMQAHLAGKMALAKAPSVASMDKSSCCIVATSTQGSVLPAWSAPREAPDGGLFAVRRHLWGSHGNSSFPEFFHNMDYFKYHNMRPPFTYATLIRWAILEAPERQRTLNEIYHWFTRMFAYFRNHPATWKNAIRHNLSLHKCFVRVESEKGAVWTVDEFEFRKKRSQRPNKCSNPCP
Description: FoxP3 positive CD4+ cells in peripheral blood and spleen of mice after PF administration. The format is in vivo. On the procedure: FIGS. 2A-2E depict that a proteolysis-targeting chimera (PROTAC) targeting FoxP3 (PF) degraded FoxP3 in vitro and in vivo. P-FoxP3 forms a ternary complex with cereblon and FoxP3. Surface plasmon resonance (SPR) assay was used to measure the equilibrium dissociation constant (KD) for the ternary complex consisting of cereblon, P-FoxP3 and FoxP3 (FIG. 2A). SPR assay was used to measure the KD for the binary complex consisting of cereblon and P-FoxP3 (FIG. 2B). Mouse splenocytes were treated in vitro with varying PF concentrations and percent of CD4+ cells staining for intracellular FoxP3 was assessed by flow cytometry. (FIG. 2C). Mice received 0.1 mmole of PF intraperitoneally (i.p.) (FIGS. 2D and 2E). 72 hours later, FoxP3 positive CD4+ cells in peripheral blood and spleen were assessed by flow cytometry (FIG. 2D). FoxP3 positive CD4+ cells in peripheral blood were assessed by flow cytometry at various timepoints following PF administration (FIG. 2E). Representative results from duplicate experiments are shown.
To assess T cells in mice, CD4+ FoxP3+ cells from serial peripheral blood draws were assessed by flow cytometry. To assess lymphocytes in mice treated with various therapies, lymph nodes and spleens were harvested to make single-cell suspensions that were activated by a CA9 peptide (AYEQLLSHL) for 4 days, and then flow cytometry was used to assess CD4, CD8, IFNγ, TNFα, CD62L CD44, and Eomes.
To determine if PF results in the degradation of FoxP3, mouse splenocytes were treated in vitro with varying concentrations of PF and percent of CD4+ cells staining for intracellular FoxP3 was assessed by flow cytometry. […] The next step was to determine if PF can decrease FoxP3 in vivo. […] 72 hours later, FoxP3 positive CD4+ cells in peripheral blood and spleen were assessed by flow cytometry. […] To understand the time course of FoxP3 decrease, serial blood draws were assessed after a single injection of PF (FIG. 2E). FoxP3 positive CD4+ cells in peripheral blood were assessed by flow cytometry at various timepoints following the PF administration. […]

Each structure is given as a SMILES string. Residues, ends and D or L forms follow the SMILES beside them. *: point of attachment. X1 = O=C1CCC(N2C(=O)c3cccc(*)c3C2=O)C(=O)N1; PEG4 = NCCOCCOCCOCCOCCC(=O)O

In the case of `CSCC[C@H](NC(=O)[C@H](C)NC(=O)[C@H](Cc1ccccc1)NC(=O)[C@H](Cc1ccccc1)NC(=O)[C@@H]1CCCN1C(=O)[C@H](Cc1c[nH]c2ccccc12)NC(=O)[C@H](CCSC)NC(=O)[C@H](CCCCN)NC(=O)[C@H](CCCNC(=N)N)NC(=O)[C@H](Cc1ccccc1)NC(=O)[C@H](CO)NC(=O)[C@H](CCC(N)=O)NC(=O)[C@H](Cc1ccccc1)NC(=O)[C@H](CC(=O)O)NC(=O)[C@H](CCCNC(=N)N)NC(=O)CCOCCOCCOCCOCCNc1cccc2c1C(=O)N(C1CCC(=O)NC1=O)C2=O)C(=O)O` (stereo partly shown) [PF, Pomalidomide-PEG4-RDFQSFRKMWPFFAM] ({X1-PEG4}-RDFQSFRKMWPFFAM-OH), the “RENCA growth in vitro (cell count)” value in the experiment on RENCA cells is given as “did not alter RENCA growth in vitro”. Moreover, at FoxP3 (serial blood draws after a single injection of PF), the “FoxP3 positive CD4+ cells in peripheral blood, time course” value was “immediately dropped as measured on day 2, and slightly came up on day 8”. At FoxP3 (single dose 0.1 mmole i.p., 72 hours later, peripheral decrease p<0.0008), the “FoxP3 positive CD4+ cells in peripheral blood and spleen” value was “decreased 3 days later in both spleen and peripheral blood”. For the same compound, the “duration of FoxP3 decrease after a single PF dose” value at FoxP3 (spleen and peripheral lymphocytes) is given as “at least 8 days”.
